Legend:
[1] = tested on: subcutaneous 22Rv1 human prostate cancer xenograft; test: Efficacy study in the 22Rv1 xenograft prostate cancer model; format: in vivo, male BALB/c nude mice; conditions: castrated mice, 21 days; doses per Table 1: Cmpd Str (I) 1.25 mg/kg p.o. BID or 10 mg/kg p.o. Q7D; enzalutamide 30 mg/kg p.o. QD; docetaxel 10 mg/kg i.p. Q7D; ABT199 100 mg/kg p.o. QD
Procedure: The objective of this study was to evaluate the in vivo therapeutic efficacy of the compound of structure (I) or a pharmaceutically acceptable salt or zwitterionic form thereof in the treatment of a subcutaneous 22Rv1 human prostate cancer xenograft model. For the 22Rv1 model, efficacy of the compound of structure (I) was evaluated in male BALB/c nude mice. Cobalt-60 irradiation of all mice was performed 2 days before the tumor inoculation at 2 Gy (1 Gy=100 rads). Each mouse was inoculated at the right flank with 1×10^7 tumor cells in 0.1 ml of PBS mixed with matrigel (1:1). The date of tumor cell inoculation was denoted as day 0.
Castration was performed when mean tumor volume reached approximately 200 mm^3. Mice were anesthetized with ketamine/xylazine; surgical castration was performed via a midline scrotal incision allowing bilateral access to the hemiscrotal contents; after exposing each testicle, a 6-0 Vicryl suture was used to ligate the spermatic cord and then remove the testicle; the scrota and skin was then closed with 6-0 Vicryl suture, separately. Treatments started when the mean tumor volume re-grew to approximately 100 mm^3.
After tumors reached the appropriate size, approximately 100-200 mm^3, mice were randomized into treatment groups 1-11, which are shown in Table 1. Each treatment was administered starting on day 15, at a dosing volume of 5 μL/g and continued for 21 days (or 22 days for groups with treatment at Q7D). For groups with treatment at Q7D×3 weeks, dosing was performed on days 1, 8, and 15 post-randomization, and the study was terminated on day 22 post randomization. The combined treatment intervals were each 0 h, and the interval for BID was 8 h. Randomization was performed based on the “Matched distribution” method (StudyDirector™ software, version 3.1.399.19) randomized block design.
Tumor volumes were measured twice per week after randomization in two dimensions using a caliper, and the volume was expressed in mm^3 using the formula: “V=(L×W×W)/2,” where V is tumor volume, L is tumor length (the longest tumor dimension) and W is tumor width (the longest tumor dimension perpendicular to L). The average tumor volume for each group, as a percentage of the average tumor volume of the control group (group 1), is shown in FIG. 6. […] The percentage shown in FIG. 7 (% T/C) is calculated as mean(T)/mean(C)*100%, with “T” representing tumor volume and “C” representing tumor volume for group 1.
T and C are the mean tumor volume (or weight) of the treated groups and control group (group 1), respectively, on a given day. The percentages shown in FIG. 10 are calculated as % ΔT/C=(mean(T)−mean(T0))/(mean(C)−mean(C0))*100%, with “0” indicating the initial timepoint.

[2] = Phase I dose-escalation study in patients with advanced solid tumors: plasma PK; format: in vivo, human; conditions: any timepoint
Procedure: Plasma PK parameters of compound of structure (I) and alvocidib were evaluated in Cohorts 1-5 at specific timepoints during the study. Blood was collected from patients in Cohorts 1-5 according to the pharmacokinetic sampling schedule described in Table 9.
PK parameters were estimated using standard noncompartmental methods. Actual sample collection times were used rather than scheduled collection times. Plasma concentrations below the limit of quantification were treated as 0. Imbedded missing plasma concentrations (e.g., missing values between two observed values) were estimated using linear […]. This is consistent with using the trapezoidal rule to calculate AUC. Other missing plasma concentrations were excluded from calculations to estimate PK parameters.

[3] = Phase I dose-escalation study in patients with advanced solid tumors: safety; format: in vivo, human
Source text: Patients with advanced metastatic or progressive solid tumors who were refractory to, or intolerant of, established therapy known to provide clinical benefit for their condition were enrolled. Cohorts of 3-6 patients each received escalating doses of compound of structure (I) using a modified Fibonacci dose escalation approach. Once the optimal dose has been established, additional patients may be enrolled to confirm safety and to explore efficacy. Twenty additional patients will be enrolled in an expansion cohort at the maximum tolerated dose (MTD).
This is an ongoing Phase 1, open-label, dose-escalation, safety, PK and PD study. The proposed starting dose and schedule for oral compound of structure (I) was a 1-mg flat dose once daily (QD) for 14 days followed by a 7-day drug-free recovery period (each cycle=21 days). In the absence of dose-limiting toxicities (DLTs) in the first cohort of at least 3 patients, the dose was increased using a modified Fibonacci dose escalation scheme, and BID dosing commenced according to the dose escalation schedule described in Table 8. The first patient in cohort 6 has been enrolled at 8 mg compound of structure (I) BID. The baseline demographics of the first 14 patients enrolled in the study are described in Table 6.
DLT was defined as any one of the following events observed in cycle 1, regardless of investigator attribution, unless there was a clear alternative explanation: • 1. Grade 3 or greater febrile neutropenia • 2. Grade 4 neutropenia for ≥7 consecutive days • 3. Grade 4 thrombocytopenia or Grade 3 thrombocytopenia with clinically significant bleeding or that requires a platelet transfusion • 4. Grade 3 or 4 nonhematologic AEs will be considered dose limiting, regardless of duration aside from the specific parameters described herein • 5. Grade 4 nausea, vomiting, or diarrhea, regardless of duration • 6. Dosing delays≥1 week due to treatment-emergent adverse events (TEAEs) or related severe laboratory test values • 7. Any AST and ALT elevation>3× ULN (if baseline value was normal) or ≥3× the baseline value (if baseline value was abnormal) accompanied by serum bilirubin levels>2×ULN • 8. […] Any Grade≥3 elevations in creatinine • 10. Any Grade 5 toxicity

[4] = tested on: PC-3 prostate tumor xenograft; test: Tumor growth in PC-3 mouse xenograft model; format: in vivo; conditions: oral gavage 1.25 mg/kg BID x 21 days, or 7.5 or 15 mg/kg q7d x 3
Procedure: The effects of the compound of structure (I) on tumor growth in the PC-3 mouse xenograft model were also assessed. PC-3 prostate tumor cells were maintained in vitro as a monolayer culture in Ham's F12K medium supplemented with 10% fetal bovine serum at 37° C. in an atmosphere of 5% CO2 in air. The cells in an exponential growth phase were harvested and counted for tumor inoculation. Each mouse was inoculated subcutaneously at the right flank region with PC-3 prostate tumor cells (5×10^6 cells) in 0.1 ml of PBS for tumor development. When the mean tumor size reached approximately 100 mm^3, the mice were randomized and divided into study groups. Compound of structure (I) was administered at 1.25 mg/kg twice daily (BID) for 21 days, or 7.5 mg/kg or 15 mg/kg once weekly (q7d×3) by oral gavage. Tumor volumes were measured twice weekly in two dimensions using a caliper, and the volume expressed in mm^3 using the formula: V=(L×W×W)/2, where V is tumor volume, L is tumor length (the longest tumor dimension) and W is tumor width (the longest tumor dimension perpendicular to L).

[5] = patients, oral, Cohorts 1-5 (1 mg QD to 6 mg BID), to date

CN1CC[C@H](c2c(OP(=O)(O)O)cc(O)c3c(=O)cc(-c4ccccc4Cl)oc23)[C@H](O)C1 [compound of structure (I)]
anti-cancer activity in the 22Rv1 xenograft model (tumor growth) [1]: modest activity | detection of compound of structure (I) in plasma ([2]; Cohort 2, 1 mg BID oral, any sample): no compound of structure (I) was detected | detectable compound of structure (I) in plasma ([2]; across cohorts (FIGS. 24G, 24H), oral Formulation No. 401-01): no detectable compound of structure (I) | Treatment-emergent adverse events, Grade 3: Anemia ([3]; number of patients (%), N = 14): 1 (7%) | Treatment-emergent adverse events, Grade 3: Chest Pain ([3]; number of patients (%), N = 14): 1 (7%) | Treatment-emergent adverse events, Grade 3: Haematuria ([3]; number of patients (%), N = 14): 1 (7%) | Treatment-emergent adverse events, Grade 3: Hypotension ([3]; number of patients (%), N = 14): 1 (7%) | Treatment-emergent adverse events, Grade 3: Hypoxia ([3]; number of patients (%), N = 14): 1 (7%) | Treatment-emergent adverse events, Grade 3: Malignant Pleural Effusion ([3]; number of patients (%), N = 14): 1 (7%) | Treatment-emergent adverse events, Grade 3: Pain ([3]; number of patients (%), N = 14): 1 (7%) | Treatment-emergent adverse events, Grade 3: Swelling ([3]; number of patients (%), N = 14): 1 (7%) | dose-limiting diarrhea or neutropenia [3, 5]: no evidence of dose-limiting diarrhea or neutropenia | unexplained toxicity [3, 5]: no unexplained toxicity | tumor growth in PC-3 mouse xenograft model [4]: inhibited tumor growth

Reference: US20200281949A1, “METHODS FOR TREATING CASTRATION-RESISTANT AND CASTRATION-SENSITIVE PROSTATE CANCER” (TOLERO PHARMACEUTICALS, INC., priority 2018, published 2020)
